Assay results taken from patent US10183032B2, “Methods for treating bacterial infection” (Ball State Innovation Corporation, priority 2012, dated 2019).

Assays:
Staphylococcus aureus [1] = assay: Assessment of bactericidal activity (HUVEC media); type: cell-based; conditions: for CFU (×10^8 ± SEM), Compound (10 μM): 1.2 × 10^8 CFU S. aureus, 1 h in HUVEC media
Procedure: FIG. 6B illustrates that neither cytotoxicity nor bactericidal activity is detected. Cultures of Staphylococcus aureus that had been incubated with the vehicle control DMSO or with ML 141 (1 hour, 37° C., 225 rpm) were serially diluted, plated onto blood agar, and incubated (18 hours, 37° C.). Colonies were enumerated and colony forming units (CFU)/ml determined. CFU/ml were not different amongst the groups (p>0.05 by t-test; n=2/treatment). […]

Staphylococcus aureus [2] = assay: Staphylococcus aureus host cell invasion assay in HUVEC, flow cytometry; type: cell-based; conditions: HUVEC; for activity at 10 µM: Staphylococcus aureus, 1 h, read-out: Internalized bacteria (% control ± SEM), Structural analog; for Internalized bacteria (% control ± SEM), Structural analog: 10 μM in PEG, 18-20 hours prior to infection, fluorescently labeled S. aureus 1 hour; for inhibition of invasion compared with ML 141 (Table 1): 10 μM, flow cytometry
Procedure: In one embodiment, human umbilical vein endothelial cells (HUVEC, Life Technologies) are cultured in M200 medium supplemented with LSGS. RAW 264.7 cells (American Type Culture Collection, ATCC, Manassas, Va.) are cultured in RPMI supplemented with 10% FBS and L-glutamine. All cell types are maintained at 5% CO2, 37° C., in 75 cm^2 vented cap flasks (Thermo-Fisher). For assays, cultured cells are plated at 1×10^5 cells/ml in 35 mm culture dishes coated with Attachment Factor. The next day, cells are pretreated in culture medium containing the vehicle control or ML 141. For compound delivery, ML 141 first is suspended into DMSO or into PEG at a concentration of 5 mM. The 5 mM solution is diluted to 1 mM in the solvent and then diluted to the final concentration for each experiment in either serum-containing or serum-free medium. For vehicle control treatment, the same volume of PEG or DMSO as that of ML 141 is added to medium. The following day, the invasion assay is performed. For the shorter duration experiments, compound is added on the same day as the invasion assay, 1 hour prior to bacteria.
In another embodiment, HUVEC (Millipore, Billerica, Mass.) are cultured in EndoGRO LS Complete Media (Millipore) and are maintained at 5% CO2, 37° C., in 75 cm^2 vented cap flasks (Thermo-Fisher). For the invasion assay, cultured cells are plated at 1×10^4 cells/ml in 96-well culture dishes coated with Attachment Factor. The next day, cells are pretreated in culture medium containing the vehicle control, ML 141, or ML 141 structural analog. For compound delivery, ML 141 and structural analogs first are suspended into PEG at a concentration of 5 mM. The 5 mM solution is diluted to 1 mM in the solvent and then is diluted to the final concentration for each experiment in serum containing medium. For vehicle control treatment, the same volume of PEG as that of ML 141 or of ML 141 structural analog is added to the medium. The following day, the invasion assay is performed. Bacteria are added directly to medium containing vehicle control, ML 141, or the ML 141 structural analog.
Two days prior to the assay, TSB is inoculated with S. aureus (American Type Culture Collection #29213) and incubated overnight (225 rpm, 37° C.). Bacteria are subcultured the next day into fresh TSB. On the day of the assay, bacteria are pelleted (10000×g, 37° C., 3 min), are washed in saline, are pelleted as above, are resuspended in saline, then fluorescently labeled by incubation with rabbit anti-mouse IgG Alexa Fluor 488 (final concentration 8 μg/ml, RT, 20 min). Protein A, a S. aureus cell surface protein, avidly binds IgG thereby labeling the bacteria. Labeled bacteria are washed twice as above and are resuspended to 3×10^8 CFU/ml in saline. Host cells are incubated with the bacteria for 1 hour (1.2×10^8 CFU/ml for same-day recovery, 5×10^6 for recovery after 48 hours, 1.4×10^7 CFU/ml; 5% CO2, 37° C.). Following infection, extracellular bacteria are removed by extensive washes with PBS and incubation of the host cells with antimicrobials that have limited mammalian membrane permeability (lysostaphin, 20 μg/ml and gentamicin, 50 μg/ml; 45 min for same-day recovery studies, 48 hours for 2-day recovery studies; 5% CO2, 37° C.). To detect the level of infection using flow cytometry, cells that have been infected with fluorescently-labeled bacteria are washed extensively with PBS, lifted from 96-well plate by incubation with trypsin, washed extensively in FACS buffer (2% BSA/0.1% sodium azide/PBS), fixed (FACS buffer containing 0.74% formaldehyde), and are counted using an Accuri flow cytometer (BD, Franklin Lakes, N.J.). They are also lifted from culture dishes using cell scrapers, pelleted, fixed (1% BSA/0.74% formaldehyde/PBS), and are counted using an Accuri flow cytometer. For enumeration of the infecting bacteria, intracellular bacteria are released from host cells using 1% saponin/PBS (20 min, 5% CO2, 37° C.) and serial dilutions are plated on TSA (16 hours, 37° C.). […]

CDC42 = CDC42 (Homo sapiens, UniProt P60953); assay: BODIPY-FL-GTP binding to CDC42
[3] = test system: Human umbilical vein endothelial cells; assay: Cytotoxicity by propidium iodide exclusion, HUVEC; type: cell-based; conditions: for Mean fluorescence intensity (×10^4 ± SEM), Compound (10 μM): HUVEC pretreated 18-20 h; for Cytotoxicity (in words): 10 μM, 18-20 h, Tables 4 and 5
Staphylococcus aureus [4] = assay: Intracellular bacteria per host cell (HUVEC), fluorescence microscopy; type: cell-based; conditions: 10 μmol/L, 18-20 h, 100 cells counted
Staphylococcus aureus [5] = assay: Assessment of bactericidal activity (DMEM, 10% fetal bovine serum); type: cell-based; conditions: 3.2 × 10^6 CFU S. aureus, 1 h in DMEM with 10% fetal bovine serum; head prints 20 mM
RAW 264.7 cells = assay: Cytotoxicity by propidium iodide, RAW 264.7 cells; type: cell-based; conditions: RAW 264.7 pretreated 18-20 h

Sequence of CDC42 (P60953 whole entry): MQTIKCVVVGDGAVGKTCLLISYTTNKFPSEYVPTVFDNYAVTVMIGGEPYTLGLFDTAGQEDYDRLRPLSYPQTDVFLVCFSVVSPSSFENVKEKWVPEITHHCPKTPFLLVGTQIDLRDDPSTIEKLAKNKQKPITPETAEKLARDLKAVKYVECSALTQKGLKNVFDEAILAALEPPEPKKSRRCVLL

SMILES	CFU (×10^8 ± SEM), Compound (10 μM) (Staphylococcus aureus [1])	Mean fluorescence intensity (×10^4 ± SEM), Compound (10 μM) [3]	Internalized bacteria (% control ± SEM), Structural analog (Staphylococcus aureus [2])	Intracellular bacteria/cell (±SEM), Structural analog (Staphylococcus aureus [4])	CFU/mL (×10^9 ± SEM), Compound (Staphylococcus aureus [5])	Mean fluorescence intensity (×10^3 ± SEM), Compound (10 μM) (RAW 264.7 cells)	further results
COc1ccc(C2=NN(c3ccc(S(N)(=O)=O)cc3)C(c3ccccc3)C2)cc1 (stereo not shown) [RSM 07]	11.5 ± 1.1 ×10^8 CFU	2.5 ± 0.4 ×10^4	–	–	–	–	activity at 10 µM (Staphylococcus aureus [2]): 34 ± 2%; GTP binding (IC50) (CDC42): only slightly higher; IC50 (CDC42): 6.2 µM
COc1ccc(C2C3Cc4ccccc4C3=NN2c2ccc(S(N)(=O)=O)cc2)cc1 (stereo not shown) [RSM 21]	15.0 ± 1.1 ×10^8 CFU	2.8 ± 0.09 ×10^4	–	–	–	–	activity at 10 µM (Staphylococcus aureus [2]): 79 ± 3%; GTP binding (IC50) (CDC42): only slightly higher; IC50 (CDC42): 5.5 µM
NS(=O)(=O)c1ccc(N2N=C(c3ccccc3)CC2c2ccc3c(c2)OCO3)cc1 (stereo not shown) [RSM 05]	8.0 ± 1.7 ×10^8 CFU	3.9 ± 0.2 ×10^4	–	–	–	–	activity at 10 µM (Staphylococcus aureus [2]): 38 ± 3%; IC50 (CDC42): 3.4 µM
COCCOc1ccc(C2=NN(c3ccc(S(N)(=O)=O)cc3)C(c3ccc(OCCOC)cc3)C2)cc1 (stereo not shown) [RSM 18]	–	–	76 ± 7% % control	–	–	–	–
COc1ccc(C2CC(c3cccc(NC(C)=O)c3)=NN2c2ccc(S(N)(=O)=O)cc2)cc1 (stereo not shown) [RSM 30]	–	–	–	1.7 ± 0.3 bacteria/cell	1.5 ± 0.02 ×10^9 CFU/mL	2.4 ± 0.4 ×10^3	–
COc1ccc(C2CC(c3ccc(NC(C)=O)cc3)=NN2c2ccc(S(N)(=O)=O)cc2)cc1 (stereo not shown) [RSM 31]	–	–	–	1.4 ± 0.4 bacteria/cell	0.9 ± 0.09 ×10^9 CFU/mL	2.4 ± 0.3 ×10^3	–
COc1ccc(C2CC(c3ccccc3)=NN2c2ccc(S(N)(=O)=O)cc2)cc1OC (stereo not shown) [RSM 15]	10.1 ± 1.0 ×10^8 CFU	4.0 ± 0.4 ×10^4	–	–	–	–	inhibition of invasion compared with ML 141 (Table 1) (Staphylococcus aureus [2]): inhibited invasion more than ML 141; activity at 10 µM (Staphylococcus aureus [2]): 45 ± 1%; IC50 (CDC42): 2.2 µM
CCC(=O)Nc1cccc(C2=NN(c3ccc(S(N)(=O)=O)cc3)C(c3ccc(OC)cc3)C2)c1 (stereo not shown) [RSM 33]	–	–	–	5.4 ± 0.4 bacteria/cell	1.3 ± 0.04 ×10^9 CFU/mL	2.9 ± 1.1 ×10^3	–
COCCOc1ccc(C2=NN(c3ccc(S(N)(=O)=O)cc3)C(c3ccc(OC)cc3)C2)cc1 (stereo not shown) [RSM 17]	–	–	67 ± 8% % control	–	–	–	–
CCC(=O)Nc1ccc(C2=NN(c3ccc(S(N)(=O)=O)cc3)C(c3ccc(OC)cc3)C2)cc1 (stereo not shown) [RSM 32]	–	–	–	5.5 ± 0.4 bacteria/cell	2.4 ± 0.3 ×10^9 CFU/mL	2.8 ± 1.1 ×10^3	–
COc1ccc(C2(C)CC(c3ccccc3)=NN2c2ccc(S(N)(=O)=O)cc2)cc1 (stereo not shown) [RSM 26]	0.8 ± 1.1 ×10^8 CFU	26.8 ± 2.1 ×10^4	40 ± 3% % control	–	–	–	Bactericidal activity (in words) (Staphylococcus aureus [1]; S. aureus incubated 1 h with compound, FIG. 6B, Tables 6 and 7): bactericidal; Cytotoxicity (in words) [3]: cytotoxic
COCCOc1ccc(C2=NN(c3ccc(S(N)(=O)=O)cc3)C(c3ccc(Cl)cc3)C2)cc1 (stereo not shown) [RSM 20]	10.0 ± 0.2 ×10^8 CFU	2.1 ± 0.2 ×10^4	–	–	–	–	activity at 10 µM (Staphylococcus aureus [2]): 61 ± 4%; IC50 (CDC42): 46.5 µM
COCCOc1ccc(C2CC(c3ccccc3)=NN2c2ccc(S(N)(=O)=O)cc2)cc1 (stereo not shown) [RSM 11]	–	–	61 ± 2% % control	–	–	–	–
COc1ccc(CCC(=NNc2ccc(S(N)(=O)=O)cc2)c2ccccc2)cc1 [RSM 27]	–	–	–	4.4 ± 0.5 bacteria/cell	2.4 ± 0.6 ×10^9 CFU/mL	1.0 ± 0.1 ×10^3	–
COc1cc(C2CC(c3ccccc3)=NN2c2ccc(S(N)(=O)=O)cc2)cc(OC)c1OC (stereo not shown) [RSM 13]	–	–	62 ± 5% % control	–	–	–	–
CC(=O)Nc1ccc(C2CC(c3ccccc3)=NN2c2ccc(S(N)(=O)=O)cc2)cc1 (stereo not shown) [RSM 29]	–	–	–	2.4 ± 0.4 bacteria/cell	1.4 ± 0.1 ×10^9 CFU/mL	4.2 ± 0.3 ×10^3	–
COc1ccc(C2=NN(c3ccc(S(N)(=O)=O)cc3)C(c3ccc(Cl)cc3)C2)cc1 (stereo not shown) [RSM 04]	3.8 ± 0.8 ×10^8 CFU	4.6 ± 0.2 ×10^4	11 ± 1% % control	–	–	–	inhibition of invasion compared with ML 141 (Table 1) (Staphylococcus aureus [2]): inhibited invasion more than ML 141; Cytotoxicity (in words) [3]: cytotoxic
COc1ccc(C2=NN(c3ccc(S(N)(=O)=O)cc3)C(c3cc(OC)c(OC)c(OC)c3)C2)cc1 (stereo not shown) [RSM 14]	–	–	71 ± 3% % control	–	–	–	–
COCCOc1ccc(C2CC(c3ccc(OC)cc3)=NN2c2ccc(S(N)(=O)=O)cc2)cc1 (stereo not shown) [RSM 12]	–	–	57 ± 3% % control	–	–	–	–
COc1ccc(C2C(C)C(c3ccccc3)=NN2c2ccc(S(N)(=O)=O)cc2)cc1 (stereo not shown) [RSM 19]	9.4 ± 1.0 ×10^8 CFU	2.6 ± 0.01 ×10^4	–	–	–	–	activity at 10 µM (Staphylococcus aureus [2]): 61 ± 2%; IC50 (CDC42): 13.5 µM
CN(C)c1ccc(C2CC(c3ccccc3)=NN2c2ccc(S(N)(=O)=O)cc2)cc1 (stereo not shown) [RSM 28]	–	–	–	1.4 ± 0.3 bacteria/cell	1.8 ± 0.05 ×10^9 CFU/mL	11 ± 2.0 ×10^3	–
